Data published in patent US9504729B2, “Antiangiogenic small molecules and methods of use” (The United States of America, as represented by the …, priority 2009, dated 2016).

Tested on: angiogenesis genes in dermal microvascular endothelial cells
Test: Real time RT-PCR of angiogenesis gene expression during endothelial tube formation
Format: cell-based
Conditions: 1 μM SM, 24 hours
Method: For gene expression studies, three independent experiments were run for each SM tested. 90.000 cells/well (6 wells/treatment) of dermal microvascular endothelial cells (Lonza, Walkersville, Md.) were seeded on polymerized GELTREX™ gel matrix (Invitrogen, Carlsbad, Calif.) in 24 well plates. Wells were immediately treated with the same volume of 1 μM SM or PBS. After 24 hours incubation at 37° C. and 5% CO2, cells were extracted using Cell Recovery Solution (BD Biosciences, San Jose, Calif., Cat. #354253). Total RNA was extracted with the RNeasy Mini Kit (Qiagen, Valencia, Calif., Cat. #74104), and retrotranscribed using […]® First-Strand reverse transcriptase (Invitrogen, Carlsbad, Calif., Cat. #11904-018). The real time PCR reactions were performed in an Opticon 2 cycler (MJ Research, Waltham, Mass.). Amplification was performed in a final volume of 25 μl, containing 2 μl cDNA (1:10 dilution from the reversed transcribed reaction) and 2 μl of primer mixture (10 μM each of forward and reverse primers). Samples were amplified as follows: after initial denaturation at 95 C for 2 minutes, reactions were run for 46 cycles at 95° C. for 30 seconds, 60° C. for 30 seconds, and 72° C. for 45 seconds. Fluorescence was measured in every cycle and a melting curve was run after the PCR by increasing temperature from 50 to 96° C. (in 0.5° C. increments). A defined single peak was obtained for all amplicons, thus confirming the specificity of the amplification.
The genes that were monitored were selected based on their relevance to the angiogenesis process. All experiments were done in triplicate. The results are shown in the volcano plots of FIG. 17. Log 2 fold-change is presented in the X-axis and log 10 P value in the Y-axis.

In the case of `CCC(=O)OCN1C(=O)C=CC1=O` [compound 19630], the “Log2 fold-change of gene expression: Kifc1” value is reported as 3.4, the “Log2 fold-change of gene expression: LAMAS5” value is reported as −0.8 and the “Log2 fold-change of gene expression: LECT1” value is reported as −0.4. For the same molecule, the “Log2 fold-change of gene expression: LEP” value was −4.5, the “Log2 fold-change of gene expression: Lasts2” value was −0.1 and the “Log2 fold-change of gene expression: Lrrk1” value was −2.9. The “Log2 fold-change of gene expression: MDK” value was −1.1, the “Log2 fold-change of gene expression: MMP2” value was 0.5 and the “Log2 fold-change of gene expression: MMP9” value was 0.3. For the same molecule, the “Log2 fold-change of gene expression: MMP11” value was 0.8, the “Log2 fold-change of gene expression: MRC2” value was 1.6 and the “Log2 fold-change of gene expression: Mmm2” value was −2.4. For the same molecule, the “Log2 fold-change of gene expression: Myo1b” value was −2.3, the “Log2 fold-change of gene expression: NID1” value was −2.6 and the “Log2 fold-change of gene expression: NM023516” value was 0.5. The “Log2 fold-change of gene expression: NRP1” value was −0.5, the “Log2 fold-change of gene expression: NRP2” value was −2.2 and the “Log2 fold-change of gene expression: Notch4” value was −1.8. The “Log2 fold-change of gene expression: Npr3” value was 8.3, the “Log2 fold-change of gene expression: PALD” value was −1.1 and the “Log2 fold-change of gene expression: PDCD2” value was 0.5. The “Log2 fold-change of gene expression: PDGFA” value was −0.7, the “Log2 fold-change of gene expression: PECAM1” value was −2.6 and the “Log2 fold-change of gene expression: PGF” value was −2.4. The “Log2 fold-change of gene expression: PLAU” value was 0.1, the “Log2 fold-change of gene expression: PLG” value was −2.7 and the “Log2 fold-change of gene expression: PNMT” value was 0.7. For the same molecule, the “Log2 fold-change of gene expression: PROK2” value was −1.3, the “Log2 fold-change of gene expression: PTGS1” value was −2.4 and the “Log2 fold-change of gene expression: PTPRCAP” value was 0.4. For the same molecule, the “Log2 fold-change of gene expression: Pltp” value was 0.9, the “Log2 fold-change of gene expression: Ptprb” value was −1.6 and the “Log2 fold-change of gene expression: Ptprm” value was −1.2. The “Log2 fold-change of gene expression: RAMP2” value was −4.8, the “Log2 fold-change of gene expression: RASD2” value was 0.9 and the “Log2 fold-change of gene expression: Rasip1” value was 3.1. For the same molecule, the “Log2 fold-change of gene expression: S1PR1” value was −2.6, the “Log2 fold-change of gene expression: SERPINF1” value was −0.8 and the “Log2 fold-change of gene expression: SPHK1” value was −0.5. For the same molecule, the “Log2 fold-change of gene expression: STAB1” value was −1.0, the “Log2 fold-change of gene expression: Sdc4” value was 2.2 and the “Log2 fold-change of gene expression: Sdpr” value was −0.1. For the same molecule, the “Log2 fold-change of gene expression: Slc43a3” value was −0.8, the “Log2 fold-change of gene expression: Slco2a1” value was −2.5 and the “Log2 fold-change of gene expression: TEK” value was −0.4. For the same molecule, the “Log2 fold-change of gene expression: TGFA” value was 1.1, the “Log2 fold-change of gene expression: TGFB1” value was −1.3 and the “Log2 fold-change of gene expression: TGFB2” value was −0.5. For the same molecule, the “Log2 fold-change of gene expression: TGFBR1” value was −0.1, the “Log2 fold-change of gene expression: THBS1” value was 0.5 and the “Log2 fold-change of gene expression: THBS2” value was −0.6. For the same molecule, the “Log2 fold-change of gene expression: THY1” value was −11.3, the “Log2 fold-change of gene expression: TIMP1” value was −0.8 and the “Log2 fold-change of gene expression: TIMP2” value was −0.9. The “Log2 fold-change of gene expression: TIMP3” value was 0.7, the “Log2 fold-change of gene expression: TNF” value was −0.6 and the “Log2 fold-change of gene expression: TNS1” value was 0.6. The “Log2 fold-change of gene expression: TNS3” value was −1.8, the “Log2 fold-change of gene expression: TRA2B” value was 1.5 and the “Log2 fold-change of gene expression: TYMP” value was 0.3. For the same molecule, the “Log2 fold-change of gene expression: VEGFA” value was 4.2, the “Log2 fold-change of gene expression: VEGFC” value was 0.1 and the “Log2 fold-change of gene expression: VGLL4” value was −1.3. For the same molecule, the “Log2 fold-change of gene expression: Vwf” value was −1.8, the “Log2 fold-change of gene expression: copa” value was 0.4 and the “Log2 fold-change of gene expression: itbp4” value was −0.8. For the same molecule, the “Log2 fold-change of gene expression: ralb” value was 0.1, the “Log2 fold-change of gene expression: stard9” value was −0.7 and the “Log2 fold-change of gene expression: B2M” value (1st listing (r49)) was 0.0. The “Log2 fold-change of gene expression: HPRT1” value (“Log2 fold-change … HPRT1” for short) (1st listing (r50)) was 0.8, the “Log2 fold-change of gene expression: RPL13A” value (from here on “Log2 fold-change … RPL13A”) (1st listing (r51)) was −0.2 and the “Log2 fold-change of gene expression: GADPH” value (shortened to “Log2 fold-change … GADPH”) (1st listing (r52)) was 0.1. The “Log2 fold-change of gene expression: ACTB” value (shortened to “Log2 fold-change … ACTB”) (1st listing (r53)) was 0.1, the “Log2 fold-change of gene expression: PLXDC1” value (1st listing (r74)) was −4.0 and the “Log2 fold-change of gene expression: TNFAIP2” value (1st listing (r91)) was 0.2. For the same molecule, the “Log2 fold-change of gene expression: Robo4” value (1st listing (r95)) was 0.1, the “Log2 fold-change of gene expression: 151516” value (1st listing (r134)) was 1.2 and the “Log2 fold-change of gene expression: TNFAIP2” value (2nd listing (r92)) was −0.4. For the same molecule, the “Log2 fold-change of gene expression: B2M” value (2nd listing (r97)) was −0.1, the “Log2 fold-change … HPRT1” value (2nd listing (r98)) was 0.9 and the “Log2 fold-change … RPL13A” value (2nd listing (r99)) was 0.3. For the same molecule, the “Log2 fold-change … GADPH” value (2nd listing (r100)) was −0.3, the “Log2 fold-change … ACTB” value (2nd listing (r101)) was −0.3 and the “Log2 fold-change of gene expression: PLXDC1” value (2nd listing (r104)) was −5.7. For the same molecule, the “Log2 fold-change of gene expression: 151516” value (2nd listing (r139)) was 0.9, the “Log2 fold-change of gene expression: Robo4” value (2nd listing (r188)) was 0.3 and the “Log2 fold-change of gene expression: B2M” value (3rd listing (r145)) was −1.4. For the same molecule, the “Log2 fold-change … HPRT1” value (3rd listing (r146)) was 0.2, the “Log2 fold-change … RPL13A” value (3rd listing (r147)) was 1.0 and the “Log2 fold-change … GADPH” value (3rd listing (r148)) was 0.1. For the same molecule, the “Log2 fold-change … ACTB” value (3rd listing (r149)) was −0.9, the “Log2 fold-change of gene expression: B2M” value (4th listing (r193)) was −0.9 and the “Log2 fold-change … HPRT1” value (4th listing (r194)) was 2.0. For the same molecule, the “Log2 fold-change … RPL13A” value (4th listing (r195)) was 0.4, the “Log2 fold-change … GADPH” value (4th listing (r196)) was −1.6 and the “Log2 fold-change … ACTB” value (4th listing (r197)) was −1.6.
